Here are results for 2 compounds from US20060252740A1 (priority 2005, published 2006).

The nature of series [1]: clinical. As to the method:
PK assessments included the following tests. […] The total number of PK samples collected was approximately 115 mL of whole blood (7-8 tablespoons). If a patient experienced a potentially drug-related SAE, additional PK samples were collected. Blood was drawn from the contralateral arm to the infusion site using an indwelling catheter to avoid multiple needle sticks. […] The blood tube was inverted several times and the tube placed in wet ice immediately pending separation of the plasma. If a catheter was used for blood collection, the fluid in the catheter was completely withdrawn prior to each sample collection and discarded. Plasma samples were kept on wet ice during collection and centrifugation. Plasma samples were split into two cryovials prior to freezing at −70° C.

Series [2] can be described thus: Cellular assays (potency of 17-AAG versus 17-AG). In kind it is cell-based.
In series [3] the test system is adult patients with solid tumors. Particulars: patients treated at 56 mg/m^2; cited from earlier work.
The subject of series [4] is patients with advanced solid tumors. Particulars: 80 mg/m^2 dose level, cited from earlier work.
Series [5] has the same test system. Particulars: population PK analysis; cited from earlier work.
The test system of series [6] is MM cells. Particulars: cited from earlier work.
Where [7] appears, read: 17-AG metabolite, Cohorts 3 & 4, 17-AAG 150 mg/m^2, Max.
Where [8] appears, read: 17-AG metabolite, Cohorts 3 & 4, 17-AAG 150 mg/m^2, Median.
Setting [9] is: 17-AG metabolite, Cohorts 3 & 4, 17-AAG 150 mg/m^2, Min.

With `CO[C@H]1/C=C\C=C(/C)C(=O)NC2=CC(=O)C(N)=C(C[C@@H](C)C[C@H](OC)[C@H](O)[C@@H](C)/C=C(\C)[C@@H]1OC(N)=O)C2=O` [17-AG, 17-aminogeldanamycin], in series [1] (setting [7]), the AUCext stood at 16.0%, the AUCextra is on record as 2,604 ng/mL * h, the AUCtotal was 16,323 ng/mL * h and the Lz was determined as 0.1512. For the same compound, in series [1] (setting [8]), the AUCext is 5.0%, the AUCtotal was 3,253 ng/mL * h and the Lz was found to be 0.1200. In series [1] (setting [9]), the AUCext was 2.2%, the AUCtotal is 980 ng·h/mL and the Lz worked out at 0.0765. Further, in series [1] (data of Tables 2 and 3, cohorts 1-4), the “average ratio of AUCtotal for the 17-AG to AUCtotal for the parent drug 17-AAG” value was determined as 82.5±90.5%. Further, in series [1] (human, plasma, intravenous, 100 mg/m2, AUClast, 17-AG metabolite, Cohorts 1 & 2, 17-AAG 100 mg/m^2, Mean), the AUC(0-t) was 3480 ng·h/mL. Further, the half-life in series [1] (human, plasma, intravenous, Terminal elimination half-life, 17-AG metabolite, cohorts 1-4 combined) is 6.52 ± 1.74 h. The “elimination in plasma profiles” value in series [1] (plasma profiles after 17-AAG infusion) is “much slower elimination”. The “relative potency of 17-AAG and 17-AG” value in series [2] is “equipotent in cellular assays”. Moreover, in series [3], the Clearance was 30.8 L/h/m^2, the VZ is reported as 203 L/m^2, the “average AUC” value was 5,558 nM*h and the “average t1/2” value is 8.6 h. The t1/2 in series [4] was 1.75 h. Moreover, the Cmax in series [4] (read-out: plasma Cmax) was 607 nM. For the same compound, the Clearance in series [5] is given as 21.3 L/h.

`CC(C)C[C@H](NC(=O)[C@H](Cc1ccccc1)NC(=O)c1cnccn1)B(O)O` [bortezomib]: the “stress response of MM cells” value in series [6] (pre-clinical studies) is on record as “triggers significant Hsp90 up-regulation”. For the same compound, the “effect on drug resistance of MM cells” value in series [6] (preclinical and clinical studies) is on record as “can overcome resistance of MM cells to conventional or high-dose cytotoxic chemotherapy”.

One may read the AUC(0-t) as the area under the concentration-time curve up to a stated or last time point. By half-life is commonly meant how long it takes for the measured level to halve. The Cmax is the maximum level reached in the sampled fluid or tissue.
